{"source": "patent US11337922B2", "about": "“Lipid particle formulations for delivery of RNA and water-soluble therapeutically effective compounds to a target cell” (BioNTech RNA Pharmaceuticals GmbH, priority 2015, dated 2022)", "system": "Vγ9Vδ2 T cells", "test": "γ9δ2 T cell proliferation/expansion after coculture of ZA-loaded iDCs with PBLs", "type": "cell-based, human", "conditions": "7-day coculture of ZA-loaded iDCs with PBLs", "procedure": "To check the functionality of the retained compound, ZA, the expansion of γ9δ2 T cells was evaluated after cocultivation of ZA-loaded iDCs with cryopreserved PBLs.\nFor evaluation of ex vivo frequency of γ9δ2 T cells freshly isolated PBMCs were stained with anti-CD3, anti-TCR-Vδ2 mABs and analysed via flow cytometry. Therefore, iDCs have been incubated as indicated for 24 h in standard medium (1×10^6 cells/mL) containing 5 μM ZA.\nAfter loading with ZA, iDCs have been centrifuged and washed with PBS. The coculture of iDCs with PBLs was setup in a ratio of 20 (iDCs): γ9δ2 T cells ex vivo. The medium was supplemented with 10 U/mL IL-2 (Proleukin). After 7-day incubation cells were harvested, washed and stained with anti-CD3, anti-TCR-Vδ2 mABs to evaluate frequency of γ9δ2 T cells and their expansion via flow cytometry. For analysis the expansion rate was determined dividing whole cell amount of γ9δ2 T cells before or after 7-day-cultivation."}
{"compound": "O=P(O)(O)C(O)(Cn1ccnc1)P(=O)(O)O", "note": "[free ZA, zoledronic acid]", "values": [{"measurement": "expansion rate of Vγ9δ2 T cells", "result": "about 15 fold"}]}
